Results from the supplement of paper PMC9663587.

Legend:
MDAMB231 = assay: GRmax, 72 h; higher = less effect;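 further: breast cell lines in 384-well plates, nine doses across a 10^4 range, Dye Drop imaging of viable cells vs DMSO and time-zero plates, GR 0 means no net growth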
SUM159 = assay: GRmax, 72 h; higher = less effect;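 further: breast cell lines in 384-well plates, nine doses across a 10^4 range, Dye Drop imaging of viable cells vs DMSO and time-zero plates, GR 0 means no net growth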
SUM229PE = assay: GRmax, 72 h; higher = less effect;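 further: breast cell lines in 384-well plates, nine doses across a 10^4 range, Dye Drop imaging of viable cells vs DMSO and time-zero plates, GR 0 means no net growth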
CAL51 = assay: area over the GR curve, 72 h; higher = more effect;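 further: Dye Drop or Deep Dye Drop imaging of viable cells in 384-well plates (Hoechst nuclei, LIVE/DEAD dye), nine half-log doses, GR normalized to DMSO controls and time-zero plates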
CAMA1 = assay: area over the GR curve, 72 h; higher = more effect;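 further: Dye Drop or Deep Dye Drop imaging of viable cells in 384-well plates (Hoechst nuclei, LIVE/DEAD dye), nine half-log doses, GR normalized to DMSO controls and time-zero plates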
HCC1954 = assay: area over the GR curve, 72 h; higher = more effect;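 further: Dye Drop or Deep Dye Drop imaging of viable cells in 384-well plates (Hoechst nuclei, LIVE/DEAD dye), nine half-log doses, GR normalized to DMSO controls and time-zero plates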
HCC38 = assay: area over the GR curve, 72 h; higher = more effect;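 further: Dye Drop or Deep Dye Drop imaging of viable cells in 384-well plates (Hoechst nuclei, LIVE/DEAD dye), nine half-log doses, GR normalized to DMSO controls and time-zero plates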
HTERT_HME1 = assay: area over the GR curve, 72 h; higher = more effect
MDAMB175VII = assay: area over the GR curve, 72 h; higher = more effect
MGH312 = assay: area over the GR curve, 72 h; higher = more effect
SUM52PE = assay: area over the GR curve, 72 h; higher = more effect
ZR751 = assay: area over the GR curve, 72 h; higher = more effect
ZR7530 = assay: area over the GR curve, 72 h; higher = more effect

SMILES: Cc1nc(-c2cn3c(n2)-c2ccc(-c4cnn(C(C)(C)C(N)=O)c4)cc2OCC3)n(C(C)C)n1 [Taselisib/GDC0032] (max 10 µM)
- GRmax, 72 h (MDAMB231): 0.0709 GR
- GRmax, 72 h (SUM159): 0.187 GR
- GRmax, 72 h (SUM229PE): -0.0501 GR
- area over the GR curve (CAL51): 0.546 GR
- area over the GR curve (CAMA1): 0.245 GR
- area over the GR curve (HCC1954): 0.949 GR
- area over the GR curve (HCC38): 0.202 GR
- area over the GR curve (HTERT_HME1): 0.439 GR
- area over the GR curve (MDAMB175VII): 1.32 GR
- area over the GR curve (MGH312): 0.886 GR
- area over the GR curve (SUM52PE): 0.647 GR
- area over the GR curve (ZR751): 0.393 GR
- area over the GR curve (ZR7530): 0.798 GR

SMILES: O=C1NC(=O)[C@@H](c2cn3c4c(cccc24)CCC3)[C@@H]1c1c[nH]c2ccccc12 [Tivantinib/ARQ197] (max 10 µM)
- GRmax, 72 h (MDAMB231): -0.0845 GR
- GRmax, 72 h (SUM159): -0.281 GR
- GRmax, 72 h (SUM229PE): -0.423 GR
- area over the GR curve (CAL51): 0.359 GR
- area over the GR curve (CAMA1): 0.526 GR
- area over the GR curve (HCC1954): 0.544 GR
- area over the GR curve (HCC38): 0.436 GR
- area over the GR curve (HTERT_HME1): 0.648 GR
- area over the GR curve (MDAMB175VII): 0.531 GR
- area over the GR curve (MGH312): 0.396 GR
- area over the GR curve (SUM52PE): 0.411 GR
- area over the GR curve (ZR751): 0.255 GR
- area over the GR curve (ZR7530): 0.457 GR

SMILES: Nc1ccc(-c2ccc3ncc4ccc(=O)n(-c5cccc(C(F)(F)F)c5)c4c3c2)cn1 [Torin2] (max 1 µM)
- GRmax, 72 h (MDAMB231): -0.0262 GR
- GRmax, 72 h (SUM159): 0.172 GR
- GRmax, 72 h (SUM229PE): -0.0085 GR
- area over the GR curve (CAL51): 0.456 GR
- area over the GR curve (CAMA1): 0.507 GR
- area over the GR curve (HCC1954): 0.55 GR
- area over the GR curve (HCC38): 0.538 GR
- area over the GR curve (HTERT_HME1): 0.339 GR
- area over the GR curve (MDAMB175VII): 1.04 GR
- area over the GR curve (MGH312): 0.816 GR
- area over the GR curve (SUM52PE): 0.533 GR
- area over the GR curve (ZR751): 0.438 GR
- area over the GR curve (ZR7530): 0.346 GR

SMILES: CC[C@@H]1C(=O)N(C)c2cnc(Nc3ccc(C(=O)N[C@H]4CC[C@H](N5CCN(CC6CC6)CC5)CC4)cc3OC)nc2N1C(C)C [Volasertib/BI6727] (max 1 µM)
- GRmax, 72 h (MDAMB231): -0.0186 GR
- GRmax, 72 h (SUM159): 0.0326 GR
- GRmax, 72 h (SUM229PE): -0.356 GR
- area over the GR curve (CAL51): 0.679 GR
- area over the GR curve (CAMA1): 0.674 GR
- area over the GR curve (HCC1954): 0.611 GR
- area over the GR curve (HCC38): 0.59 GR
- area over the GR curve (HTERT_HME1): 0.415 GR
- area over the GR curve (MDAMB175VII): 0.449 GR
- area over the GR curve (MGH312): 0.801 GR
- area over the GR curve (SUM52PE): 0.488 GR
- area over the GR curve (ZR751): 0.263 GR
- area over the GR curve (ZR7530): 0.753 GR

SMILES: O=C(CCCCCCC(=O)Nc1ccccc1)NO [Vorinostat] (max 10 µM)
- GRmax, 72 h (MDAMB231): -0.385 GR
- GRmax, 72 h (SUM159): 0.181 GR
- GRmax, 72 h (SUM229PE): -0.0664 GR
- area over the GR curve (CAL51): 0.186 GR
- area over the GR curve (CAMA1): 0.383 GR
- area over the GR curve (HCC1954): 0.234 GR
- area over the GR curve (HCC38): 0.284 GR
- area over the GR curve (HTERT_HME1): 0.153 GR
- area over the GR curve (MDAMB175VII): 0.445 GR
- area over the GR curve (MGH312): 0.37 GR
- area over the GR curve (SUM52PE): 0.0969 GR
- area over the GR curve (ZR751): 0.0343 GR
- area over the GR curve (ZR7530): 0.276 GR

SMILES: C=CC(=O)Nc1ccc(C(=O)Nc2[nH]nc3c2CN(C(=O)N[C@H](CN(C)C)c2ccccc2)C3(C)C)cc1 [YKL-5-124] (max 10 µM)
- GRmax, 72 h (MDAMB231): -0.19 GR
- GRmax, 72 h (SUM159): -0.137 GR
- GRmax, 72 h (SUM229PE): -0.0428 GR
- area over the GR curve (CAL51): 0.655 GR
- area over the GR curve (CAMA1): 0.968 GR
- area over the GR curve (HCC1954): 0.969 GR
- area over the GR curve (HCC38): 0.928 GR
- area over the GR curve (HTERT_HME1): 0.889 GR
- area over the GR curve (MDAMB175VII): 0.989 GR
- area over the GR curve (MGH312): 0.923 GR
- area over the GR curve (SUM52PE): 0.564 GR
- area over the GR curve (ZR751): 0.717 GR
- area over the GR curve (ZR7530): 0.831 GR

SMILES: CN1CCN(C(=O)c2ccc3cc(CCNc4ncnc5ccc(C#N)cc45)ccc3c2)CC1 [senexin b] (max 10 µM)
- GRmax, 72 h (MDAMB231): 0.892 GR
- GRmax, 72 h (SUM159): 0.881 GR
- GRmax, 72 h (SUM229PE): 0.696 GR
- area over the GR curve (CAL51): 0.119 GR
- area over the GR curve (CAMA1): 0.351 GR
- area over the GR curve (HCC1954): 0.327 GR
- area over the GR curve (HCC38): 0.152 GR
- area over the GR curve (HTERT_HME1): 0.177 GR
- area over the GR curve (MDAMB175VII): 0.427 GR
- area over the GR curve (MGH312): 0.418 GR
- area over the GR curve (SUM52PE): 0.141 GR
- area over the GR curve (ZR751): 0.05 GR
- area over the GR curve (ZR7530): 0.274 GR
